Data on 34 molecules can be found in patent US20220071970A1, “QUINUCLIDINE-3-ONE DERIVATIVES AND THEIR USE IN CANCER TREATMENT” (Aprea Therapeutics AB, priority 2018, published 2022).

One may read the IC50 as the midpoint of a concentration-inhibition curve. The term half-life denotes the time in which the quantity being followed falls by half. Lower therefore signals fast loss.

Like-named read-outs stand apart in the source and are kept apart here. Some results are limits rather than exact numbers.

In data set [1] the test system is SaOS-2 His273 mtp53 human osteosarcoma cell line. The data set can be described thus: In vitro efficacy study using the SaOS-2 His273 protocol (CellTiter-Glo viability, 72 h). Format: cell-based. Conditions: read-out: SaOS-2 His273 IC50. How it is done: SaOS-2 His273 mtp53 is a human osteosarcoma cell line which has been genetically engineered at OnkPat CCK to express His273 mutated p53.
3000 cells/well (50 μl) were seeded into masked (black or white with clear bottom) 96-well cell culture plates using Iscove's Modified Dulbecco's Medium supplemented with 10% heat inactivated (56° C. for 60 min) fetal calf serum. The plates were then incubated for 4 hours, allowing the cells to attach. The test compounds were dissolved in DMSO or water to a concentration of 0.01 M and then further diluted to desired concentrations using the cell medium. 50 μl of freshly diluted test compound from fresh stock was added to the wells. The plates were then incubated for 72 hours.
For viability detection, CellTiter-Glo® Luminescent Cell Viability Assay (CTG) was used. CTG is a homogeneous “add-mix-measure” format method of determining the number of viable cells in culture based on quantitation of the ATP present, an indicator of metabolically active cells. The luminescence was measured using the PerkinElmer Victorx4 instrument.
The average of the signal values for the untreated cells was calculated for each plate. The % of growth suppression was calculated as:
100−((Signal sample/Signal untreated cells)×100).
The results of the SaOs-2 His273 analyses were expressed as IC50 values, i.e. concentration that suppresses growth of at least 50% of the cells. The IC50 values of various compounds according to the invention and of some comparative compounds are shown in Table 1, Table 2, Table 3 and Table 4.

Data set [2] is described as follows: Stability study in pH 4 buffer at 25° C. Format: physicochemical. Conditions: for % Parent remaining at 48 h: LCMS, normalized to internal standard. How it is done:
Chemical stability at low pH was investigated for selected compounds. Compounds that are highly unstable may not be suitable as drug candidates, for example due to potential difficulties in achieving and maintaining a stable and therapeutically effective formulation. For instance, compounds intended for oral administration must be chemically stable at the low pH observed in the stomach in order for this to be an acceptable route.
A pH 4 buffer was prepared by mixing 4.1 mL of 0.2 M acetic acid (aq.) with 0.9 mL of a 0.2 M sodium acetate (aq.) and then diluting to 10 mL with distilled water. The pH was determined by pH meter to 4.04.
Benzylpiperidine-4-ol was used as internal standard. A 1 mg/mL stock solution was prepared by dissolving 3.5 mg benzylpiperidine-4-ol in 3.5 mL of water. 500 μL of the stock solution were added to pH 4 buffer (5 mL) and the mixture was shaken.
A 1 mg/mL solution in acetonitrile was prepared for each test compound. Two drops of water were added to ca. 1 mL of acetonitrile in order to completely dissolve Example 2.
To 400 μL of pH 4 buffer with internal standard were added 100 μL of 1 mg/mL test compound solution. The solutions were stored at 25° C. and analyzed by LCMS directly and at different time points up to 48 hours. The [M+H]^+ ion for parent compound (test compound) and the internal standard (m/z 192) were extracted and integrated. The area for the parent compound was normalized to the area of the internal standard for each time point.
The half-life was calculated based on 1st order kinetics (t %=ln2/k). The rate constant (k) was obtained by plotting In[normalized peak area] against time.
Results for half-life and percent parent compound remaining at 48 h for selected examples and a comparative example are shown in Table 5.

With `O=C1C2CCN(CC2)C1Cc1cnn[nH]1` (racemic) [Comparative example 5, 2-((1H-1,2,3-triazol-5-yl)methyl)quinuclidin-3-one, reference compound], the half-inhibitory concentration (IC50) in data set [1] (SAOS-2, 72 h) is above 40 µM.

Turning to `CCN(CC1C(=O)C2CCN1CC2)C(=O)C(Cl)(Cl)Cl` (racemic) [Example 1, 2,2,2-trichloro-N-ethyl-N-((3-oxoquinuclidin-2-yl)methyl)acetamide], the IC50 in data set [1] (SAOS-2, 72 h) was found to be 3.2 µM.

Consider `O=C1C2CCN(CC2)C1CNC(=O)C(Cl)(Cl)Cl` (racemic) [Example 2, 2,2,2-trichloro-N-((3-oxoquinuclidin-2-yl)methyl)acetamide], for which the IC50 in data set [1] (SAOS-2, 72 h) worked out at 6.9 µM.

Take `CCN(CC1C(=O)C2CCN1CC2)C(=O)C(F)(F)F` (racemic) [Example 3, N-ethyl-2,2,2-trifluoro-N-((3-oxoquinuclidin-2-yl)methyl)acetamide]: the IC50 in data set [1] (SAOS-2, 72 h) is 4.2 µM.

Regarding `O=C(NCC1C(=O)C2CCN1CC2)C(F)F` (racemic) [Example 5, 2,2-difluoro-N-((3-oxoquinuclidin-2-yl)methyl)acetamide], in data set [1] (SAOS-2, 72 h), the IC50 was 13 µM.

As to `O=C1C2CCN(CC2)C1CNS(=O)(=O)c1cccnc1` (racemic) [Example 6, N-((3-oxoquinuclidin-2-yl)methyl)pyridine-3-sulfonamide], in data set [1] (SAOS-2, 72 h), the IC50 is 7.2 µM.

As for `O=C1C2CCN(CC2)C1CNS(=O)(=O)c1ccc(F)cc1` (racemic) [Example 7, 4-fluoro-N-((3-oxoquinuclidin-2-yl)methyl)benzenesulfonamide], the IC50 in data set [1] (SAOS-2, 72 h) was 7.2 µM.

Take `CCN(CC1C(=O)C2CCN1CC2)S(C)(=O)=O` (racemic) [Example 8, N-ethyl-N-((3-oxoquinuclidin-2-yl)methyl)methane-sulfonamide]: the IC50 in data set [1] (SAOS-2, 72 h) came out at 6 µM.

Turning to `CS(=O)(=O)NCC1C(=O)C2CCN1CC2` (racemic) [Example 9, N-((3-oxoquinuclidin-2-yl)methyl)methanesulfon-amide], in data set [1] (SAOS-2, 72 h), the IC50 was 8 µM.

`O=C1C2CCN(CC2)C1CNS(=O)(=O)c1ccccc1` (racemic) [Example 10, N-((3-oxoquinuclidin-2-yl)methyl)benzenesulfon-amide]: the IC50 in data set [1] (SAOS-2, 72 h) was 7.1 µM.

Take `CS(=O)(=O)N(CC(N)=O)CC1C(=O)C2CCN1CC2` (racemic) [Example 11, 2-(N-((3-oxoquinuclidin-2-yl)methyl)methylsulfon-amido)acetamide]: the IC50 in data set [1] (SAOS-2, 72 h) amounted to 4.1 µM.

As for `CS(=O)(=O)N(CC(=O)O)CC1C(=O)C2CCN1CC2` (racemic) [Example 12, N-(methylsulfonyl)-N-((3-oxoquinuclidin-2-yl)-methyl)qlycine], the IC50 in data set [1] (SAOS-2, 72 h) amounted to 6 µM.

In the case of `O=C1C2CCN(CC2)C1CNS(=O)(=O)c1ccncc1` (racemic) [Example 13, N-((3-oxoquinuclidin-2-yl)methyl)pyridine-4-sulfon-amide], the IC50 in data set [1] (SAOS-2, 72 h) turned out to be 6.3 µM.

In the case of `O=C1C2CCN(CC2)C1CNS(=O)(=O)c1ccccn1` (racemic) [Example 14, N-((3-oxoquinuclidin-2-yl)methyl)pyridine-2-sulfonamide], the IC50 in data set [1] (SAOS-2, 72 h) is 6 µM.

Regarding `CCN(CC1C(=O)C2CCN1CC2)S(=O)(=O)C(F)(F)F` (racemic) [Example 15, N-ethyl-1,1,1-trifluoro-N-((3-oxoquinuclidin-2-yl)-methyl)methanesulfonamide], the IC50 in data set [1] (SAOS-2, 72 h) stood at 3.5 µM.

As to `O=C1C2CCN(CC2)C1CNS(=O)(=O)C(F)(F)F` (racemic) [Example 16, 1,1,1-trifluoro-N-((3-oxoquinuclidin-2-yl)methyl)methanesulfonamide], the IC50 in data set [1] (SAOS-2, 72 h) is 2.9 µM.

In the case of `CC(C)S(=O)(=O)NCC1C(=O)C2CCN1CC2` (racemic) [Example 18, N-((3-oxoquinuclidin-2-yl)methyl)propane-2-sulfonamide], the IC50 in data set [1] (SAOS-2, 72 h) was found to be 11 µM.

Regarding `O=C1C2CCN(CC2)C1CNS(=O)(=O)C1CC1` (racemic) [Example 19, N-((3-oxoquinuclidin-2-yl)methyl)cyclopropane-sulfonamide], the IC50 in data set [1] (SAOS-2, 72 h) is 12 µM.

For `CC1(S(=O)(=O)NCC2C(=O)C3CCN2CC3)CC1` (racemic) [Example 20, 1-methyl-N-((3-oxoquinuclidin-2-yl)methyl)cyclo-propane-1-sulfonamide], in data set [1] (SAOS-2, 72 h), the IC50 was found to be 7.4 µM.

Consider `CS(=O)(=O)N(CC1C(=O)C2CCN1CC2)C1CC1` (racemic) [Example 21, N-cyclopropyl-N-((3-oxoquinuclidin-2-yl)methyl)-methanesulfonamide], for which, in data set [1] (SAOS-2, 72 h), the 50% inhibitory concentration (IC50) was 1.8 µM.

`CS(=O)(=O)N(CC1C(=O)C2CCN1CC2)c1ccccc1` (racemic) [Example 22, N-((3-oxoquinuclidin-2-yl)methyl)-N-phenyl-methanesulfonamide]: in data set [1] (SAOS-2, 72 h), the IC50 came to 1.6 µM.

In the case of `O=C1C2CCN(CC2)C1Cn1ccc(=O)[nH]c1=O` (racemic) [Example 23, 1-((3-oxoquinuclidin-2-yl)methyl)pyrimidine-2,4(1H,3H)-dione], the IC50 in data set [1] (SAOS-2, growth suppression, 72 hours incubation, CellTiter-Glo) is 3.2 µM. In data set [2], the “% Parent remaining at 48 h” value is given as 59%. The same molecule showed a half-life at 0.2 mg/mL in data set [2] (pH 4 acetate buffer, 1st order kinetics) of 67 h.

Take `Cc1cn(CC2C(=O)C3CCN2CC3)c(=O)n(C(=O)OC(C)(C)C)c1=O` (racemic) [Example 25, tert-butyl 5-methyl-2,6-dioxo-3-((3-oxoquinuclidin-2-yl)methyl)-3,6-dihydropyrimidine-1(2H)-carboxylate]: the IC50 in data set [1] (SAOS-2, 72 h) is 5.3 µM.

Regarding `CNC(=O)c1ncn(CC2C(=O)C3CCN2CC3)n1` (racemic) [Example 27, N-methyl-1-((3-oxoquinuclidin-2-yl)methyl)-1H-1,2,4-triazole-3-carboxamide], in data set [1] (SAOS-2, 72 h), the IC50 was 5 µM.

As for `O=C1C2CCN(CC2)C1Cn1cnc(Cl)n1` (racemic) [Example 28, 2-((3-chloro-1H-1,2,4-triazol-1-yl)methyl)quinuclidin-3-one], the IC50 in data set [1] (SAOS-2, 72 h) was found to be 3.1 µM.

Consider `O=C1C2CCN(CC2)C1Cn1cncn1` (racemic) [Example 30, 2-((1H-1,2,4-triazol-1-yl)methyl)quinuclidin-3-one], for which the IC50 in data set [1] (SAOS-2, 72 h) amounted to 26 µM.

For `N#Cc1ncn(CC2C(=O)C3CCN2CC3)n1` (racemic) [Example 31, 1-((3-oxoquinuclidin-2-yl)methyl)-1H-1,2,4-triazole-3-carbonitrile], in data set [1] (SAOS-2, 72 h), the IC50 was 2.4 µM.

Consider `NC(=O)c1ncn(CC2C(=O)C3CCN2CC3)n1` (racemic) [Example 32, 1-((3-oxoquinuclidin-2-yl)methyl)-1H-1,2,4-triazole-3-carboxamide], for which, in data set [1] (SAOS-2, 72 h), the IC50 came out at 10 µM.

As to `CC(=O)NCC1C(=O)C2CCN1CC2` (racemic) [compound 1, N-((3-oxoquinuclidin-2-yl)methyl)acetamide, reference compound], in data set [1] (SAOS-2, 72 h), the IC50 is above 40 µM.

On to `O=C(NCC1C(=O)C2CCN1CC2)c1cccnc1` (racemic) [compound 2, N-((3-oxoquinuclidin-2-yl)methyl)nicotinamide, reference compound], for which the IC50 in data set [1] (SAOS-2, 72 h) is above 40 µM.

For the molecule `O=C1C2CCN(CC2)C1Cn1cccn1` (racemic) [compound 4, 2-((1H-pyrazol-1-yl)methyl)quinuclidin-3-one, reference compound], the IC50 in data set [1] (SAOS-2, 72 h) was above 40 µM.

For `CN(C)C(=O)c1ncn(CC2C(=O)C3CCN2CC3)n1` (single isomer, unassigned) [Example 29, N,N-dimethyl-1-((3-oxoquinuclidin-2-yl)methyl)-1H-1,2,4-triazole-3-carboxamide], the IC50 in data set [1] (SAOS-2, 72 h) was determined as 8.8 µM.

As for `O=C1C2CCN(CC2)C1Cn1cc(F)c(=O)[nH]c1=O` (stereo not shown) [Comparative example 3, 5-fluoro-1-((3-oxoquinuclidin-2-yl)methyl)pyrimidine-2,4(H,3H)-dione, reference compound], the Half-life in data set [2] (1st order kinetics) came out at 15 h. Besides, the “% Parent remaining at 48 h” value in data set [2] is reported as 18%.

On to `CS(=O)(=O)N(CC1C(=O)C2CCN1CC2)CC1C(=O)C2CCN1CC2` (stereo not shown) [Example 17, N,N-bis((3-oxoquinuclidin-2-yl)methyl)methanesulfonamide], for which the IC50 in data set [1] (SAOS-2, 72 h) came out at 2.9 µM.
